Experimental data from ChEMBL document CHEMBL1201862, “PubChem BioAssay data set” (2004).
The source made the active and inactive calls.

Key:
[1] = biological target: T1, High affinity choline transporter 1 (Homo sapiens, UniProt Q9GZV3); assay: CHT inhibitors, dose response, cell-based, 5-point CRC, membrane potential dye (AID 504840); type: functional
[2] = biological target: T1, High affinity choline transporter 1; assay: CHT inhibitors, dose response, cell-based, 10-point CRC, membrane potential dye (AID 588401); type: functional;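 note: membrane potential dye fluorescence of choline-evoked depolarization via CHT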
Large T antigen = Large T antigen (Simian virus 40, UniProt P03070); type: functional, Betapolyomavirus macacae;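 note: Confirmatory-stage PubChem screen for compounds that inhibit SV40 T antigen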
[3] = biological target: T2, DNA dC->dU-editing enzyme APOBEC-3A (Homo sapiens, UniProt P31941); assay: APOBEC3A DNA deaminase inhibitors, dose response, biochemical (AID 504722); type: functional
[4] = biological target: T3, DNA dC->dU-editing enzyme APOBEC-3G (Homo sapiens, UniProt Q9HC16); assay: Dose Response confirmation of small molecule APOBEC3G DNA Deaminase Inhibitors via a fluorescence-based single-stranded DNA deaminase assay. [Related pubchem assays (depositor defined):AID493012, AID493028]; type: functional
[5] = biological target: T2, DNA dC->dU-editing enzyme APOBEC-3A; assay: SAR analysis of small molecule inhibitors of APOBEC3A DNA Deaminase via a fluorescence-based single-stranded DNA deaminase assay - Set 2.; type: functional; conditions: read-out: IC50_Mean
[6] = biological target: T3, DNA dC->dU-editing enzyme APOBEC-3G; assay: SAR analysis of small molecule inhibitors of APOBEC3G DNA Deaminase via a fluorescence-based single-stranded DNA deaminase assay - Set 2.; type: functional; conditions: read-out: IC50_Mean
[7] = tested on: Streptococcus sp. 'group A'; assay: growth inhibition of control SK(-) GAS strain, dose response, counter-screen for streptokinase expression inhibitor project, luminescence, kanamycin, BacTiterGlo, confirmation (AID 1900); type: functional, organism-based
Streptokinase A = biological target: T4, Streptokinase A (Streptococcus pyogenes serotype M1, UniProt P10520); assay: S. pyogenes streptokinase expression inhibitors, potency, dose response, plasminogen activation absorbance, OD405 (AID 1914); type: functional, Streptococcus pyogenes M1 GAS;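 note: secreted streptokinase activity via plasminogen activation per viability signal from cell pellet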
T4 sequence (P10520 whole entry): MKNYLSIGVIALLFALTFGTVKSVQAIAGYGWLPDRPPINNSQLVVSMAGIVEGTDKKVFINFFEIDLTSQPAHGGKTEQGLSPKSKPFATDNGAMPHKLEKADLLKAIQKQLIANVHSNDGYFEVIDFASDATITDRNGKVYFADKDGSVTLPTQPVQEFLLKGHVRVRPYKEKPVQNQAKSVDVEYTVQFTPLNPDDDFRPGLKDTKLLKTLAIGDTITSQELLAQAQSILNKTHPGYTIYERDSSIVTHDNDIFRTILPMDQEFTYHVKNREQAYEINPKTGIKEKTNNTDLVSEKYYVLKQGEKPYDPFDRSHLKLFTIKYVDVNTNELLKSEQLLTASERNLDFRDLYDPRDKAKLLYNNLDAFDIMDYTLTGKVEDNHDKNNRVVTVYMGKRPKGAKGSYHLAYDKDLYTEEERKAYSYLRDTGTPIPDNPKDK

NS3 = NS3 (Hepatitis C virus, UniProt A3EZJ3); assay: PubChem AID 2173; parameters: species or system Hepacivirus hominis
Streptococcus = assay: Group A Streptococcus viability loss, dose response, counter-screen for streptokinase expression inhibitor project, luminescence, BacTiterGlo (AID 1915); type: functional, organism-based;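 note: potency for reduction of bacterial viability or growth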
DNA topoisomerase = DNA topoisomerase (Yersinia pestis, UniProt A0A2S9PM60); assay: Y. pestis Topo-I inhibitors, cleavage product readout, dose response, biochemical, cherry-pick (AID 588525)
Vero = Vero cell cytotoxicity, cytotoxicity control for flavivirus capping enzyme inhibitors (AID 588742); type: functional; conditions: Chlorocebus sabaeus
Genome polyprotein = Genome polyprotein (dengue virus type 2, UniProt P29990); assay: Dengue-2 NS5 methyltransferase inhibitors, primary screen, biochemical, confirmation dose response (AID 588689); type: functional
[8] = biological target: Beta-adrenergic receptor kinase 1 (Homo sapiens, UniProt P25098); assay: aptamer displacement from bead-bound GRK2 – biochemical, cherry pick 1, bead flow cytometry, dose response (AID 504500)
[9] = biological target: T5, Carboxy-terminal domain RNA polymerase II polypeptide A small phosphatase 1 (Homo sapiens, UniProt Q9GZU7); assay: inhibitors of CTDSP1, concentration-response testing, biochemical assay, absorbance-based, actives from ultra-high-throughput screening (AID 540297); type: functional
T5 sequence (Q9GZU7 whole entry): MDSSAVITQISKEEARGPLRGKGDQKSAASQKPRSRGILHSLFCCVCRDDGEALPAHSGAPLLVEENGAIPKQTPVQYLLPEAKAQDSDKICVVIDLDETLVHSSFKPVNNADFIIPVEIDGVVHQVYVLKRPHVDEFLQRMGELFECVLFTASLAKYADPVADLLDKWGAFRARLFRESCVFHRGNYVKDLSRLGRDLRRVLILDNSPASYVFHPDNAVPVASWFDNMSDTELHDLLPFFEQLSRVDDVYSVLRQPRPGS

Melanocortin receptor 4 = Melanocortin receptor 4 (Homo sapiens, UniProt P32245); assay: MC4R antagonist potency on cAMP, dose response, cell-based, TR-FRET, biased antagonists (AID 602298); type: functional;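 note: antagonist potency against agonist-stimulated cAMP production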
[10] = biological target: 26S proteasome non-ATPase regulatory subunit 14 (Homo sapiens, UniProt O00487); assay: inhibition of proteasome subunit RPN11 – biochemical, fluorescence polarization, uHTS hits, confirmation (AID 602368); type: functional
[11] = biological target: 72 kDa type IV collagenase (Homo sapiens, UniProt P08253); assay: Dose Response validation of uHTS RPN11 inhibitor hits using a MMP-2 Fluorescence assay.; type: functional
[12] = nonselective inhibitors of cellular cAMP signaling, dose response, counter-screen for MC4R biased antagonist project, cell-based, TR-FRET cAMP detection (AID 602305); type: functional;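 note: U2OS cells stimulated with forskolin near its EC80 as the cAMP inducer; potency is for inhibition of forskolin-stimulated cAMP signaling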
Prothrombin = Prothrombin (Bos taurus, UniProt P00735); assay: thrombin inhibition, dose response, biochemical, fluorescence polarization, uHTS hits (AID 602369); type: functional
[13] = biological target: Disintegrin and metalloproteinase domain-containing protein 17 (Homo sapiens, UniProt P78536); assay: exosite inhibitors of ADAM17, dose response, biochemical (AID 743260)
[14] = ADAM10 protease inhibitors, dose response, selectivity assay for ADAM17 exosite inhibitor project, biochemical, FRET peptide substrate, recombinant human ADAM10 (AID 743259);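 note: ADAM10 enzyme cleaving a FRET peptide substrate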
[15] = blockers of SFLLRN-triggered platelet ATP secretion – cell-based, human platelets, luminescence, dry powder, dose response (AID 493100); type: functional
[16] = Luminescence Cell-Based Dose Response Follow up to Identify Inhibitors of Platelet Dense Granule Release. [Related pubchem assays (depositor defined):AID1663, AID1678, AID2398]; type: functional
[17] = biological target: Multidrug resistance protein CDR2 (Candida albicans (strain SC5314 / ATCC MYA-2876) (Yeast), UniProt P78595); assay: CaCDR2 efflux pump inhibitors in yeast, dose response, S. cerevisiae AD1-8u, singleplex, Cherry Pick1 hits (AID 588604); type: functional
Phospholipase D1 = Phospholipase D1 (Homo sapiens, UniProt Q13393); assay: PLD1 inhibitor potency in cells, dose response (AID 602151); type: functional;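 note: cellular PLD1 assay in Calu-1 cells stimulated with PMA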
Phospholipase D2 = Phospholipase D2 (Homo sapiens, UniProt O14939); assay: PLD2 inhibitor potency in cells, dose response (AID 602147); type: functional;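 note: cellular assay in HEK293 cells overexpressing GFP-tagged PLD2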
[18] = biological target: Tyrosine-protein kinase JAK2 (Homo sapiens, UniProt O60674); type: functional;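 note: JAK2 tested as one member of a kinase panel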
[19] = biological target: Serine/threonine-protein kinase Chk1 (Homo sapiens, UniProt O14757); type: functional;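 note: measured as one member of a kinome-wide kinase profiling panel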
[20] = biological target: Dual specificity mitogen-activated protein kinase kinase 1 (Homo sapiens, UniProt Q02750); assay: Navigating the Kinome. Panel member name: MAP2K1; type: functional
[21] = biological target: 5'-AMP-activated protein kinase catalytic subunit alpha-1 (Homo sapiens, UniProt Q13131); type: functional
[22] = biological target: Tyrosine-protein kinase BTK (Homo sapiens, UniProt Q06187); type: functional
[23] = biological target: Tyrosine-protein kinase Fer (Homo sapiens, UniProt P16591); type: functional;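 note: FER tested as one member of a kinome panel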
[24] = biological target: STE20-like serine/threonine-protein kinase (Homo sapiens, UniProt Q9H2G2); type: functional
[25] = biological target: Fibroblast growth factor receptor 3 (Homo sapiens, UniProt P22607); type: functional
[26] = biological target: Dual specificity mitogen-activated protein kinase kinase 2 (Homo sapiens, UniProt P36507); assay: Navigating the Kinome. Panel member name: MAP2K2; type: functional
[27] = biological target: Sphingosine 1-phosphate receptor 2 (Homo sapiens, UniProt O95136); assay: Late-stage fluorescence-based dose-response cell-based counterscreen assay to identify agonists of the Sphingosine 1-Phosphate Receptor 3 (S1P3): Sphingosine 1-Phosphate Receptor 2 (S1P2) agonist assay.; type: functional
[28] = biological target: T6, Sphingosine 1-phosphate receptor 4 (Homo sapiens, UniProt O95977); assay: Late-stage fluorescence-based dose-response cell-based counterscreen assay to identify agonists of the Sphingosine 1-Phosphate Receptor 3 (S1P3): Sphingosine 1-Phosphate Receptor 4 (S1P4) agonist assay.; type: functional
T6 sequence (O95977 whole entry): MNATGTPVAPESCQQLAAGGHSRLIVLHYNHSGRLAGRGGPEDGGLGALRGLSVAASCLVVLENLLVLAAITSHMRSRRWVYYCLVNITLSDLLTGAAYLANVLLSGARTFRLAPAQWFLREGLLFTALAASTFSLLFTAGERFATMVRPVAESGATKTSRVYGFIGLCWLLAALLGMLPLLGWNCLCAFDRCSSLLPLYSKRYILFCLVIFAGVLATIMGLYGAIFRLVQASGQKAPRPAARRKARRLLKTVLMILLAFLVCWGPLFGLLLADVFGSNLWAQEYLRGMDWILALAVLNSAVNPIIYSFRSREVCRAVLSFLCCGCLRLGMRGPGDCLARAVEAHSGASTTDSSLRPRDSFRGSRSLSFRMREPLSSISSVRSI

[29] = biological target: T7, V-type proton ATPase subunit c' (Saccharomyces cerevisiae S288c, UniProt P32842); assay: Dose Response with BCECF Assay for V-ATPase inhibitors that increase vacuolar pH, Powder Set 1.; type: functional; conditions: read-out: EC50_MICROM
[30] = biological target: T7, V-type proton ATPase subunit c'; assay: Dose Response of Small Molecules that Regulate V-ATPase Proton Transport in Yeast using pHLuorin, Powder Set1.; type: functional; conditions: read-out: EC50_MICROM

T7 sequence (P32842 whole entry): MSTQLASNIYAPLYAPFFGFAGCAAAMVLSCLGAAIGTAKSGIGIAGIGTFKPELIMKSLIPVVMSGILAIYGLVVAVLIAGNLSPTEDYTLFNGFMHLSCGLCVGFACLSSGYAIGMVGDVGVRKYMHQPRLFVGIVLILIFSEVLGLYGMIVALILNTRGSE
T3 sequence (Q9HC16 whole entry): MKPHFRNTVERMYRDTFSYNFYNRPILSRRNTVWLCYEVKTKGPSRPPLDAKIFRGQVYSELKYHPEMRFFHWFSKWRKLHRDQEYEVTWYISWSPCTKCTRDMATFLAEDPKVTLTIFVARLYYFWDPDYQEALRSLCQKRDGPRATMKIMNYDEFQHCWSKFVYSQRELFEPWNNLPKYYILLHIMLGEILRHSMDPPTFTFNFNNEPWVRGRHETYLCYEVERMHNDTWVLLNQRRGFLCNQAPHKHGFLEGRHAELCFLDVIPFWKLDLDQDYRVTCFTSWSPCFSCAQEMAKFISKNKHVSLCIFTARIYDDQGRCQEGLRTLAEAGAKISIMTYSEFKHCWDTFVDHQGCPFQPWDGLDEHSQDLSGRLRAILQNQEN
T1 sequence (Q9GZV3 whole entry): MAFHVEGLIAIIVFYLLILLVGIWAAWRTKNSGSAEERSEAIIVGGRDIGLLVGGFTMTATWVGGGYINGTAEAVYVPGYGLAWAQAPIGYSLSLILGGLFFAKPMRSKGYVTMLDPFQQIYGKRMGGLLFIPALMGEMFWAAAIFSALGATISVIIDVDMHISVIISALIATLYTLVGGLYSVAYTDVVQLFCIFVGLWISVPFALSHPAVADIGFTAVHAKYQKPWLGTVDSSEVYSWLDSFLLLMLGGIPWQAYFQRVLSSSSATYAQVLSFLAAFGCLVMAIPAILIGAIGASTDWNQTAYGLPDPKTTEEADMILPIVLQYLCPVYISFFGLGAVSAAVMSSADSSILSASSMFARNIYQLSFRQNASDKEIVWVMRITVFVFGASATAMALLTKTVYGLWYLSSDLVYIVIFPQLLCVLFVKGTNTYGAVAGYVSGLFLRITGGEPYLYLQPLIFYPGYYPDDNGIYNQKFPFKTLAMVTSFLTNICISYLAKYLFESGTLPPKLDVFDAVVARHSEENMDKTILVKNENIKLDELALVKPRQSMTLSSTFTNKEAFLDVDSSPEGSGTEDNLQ
T2 sequence (P31941 whole entry): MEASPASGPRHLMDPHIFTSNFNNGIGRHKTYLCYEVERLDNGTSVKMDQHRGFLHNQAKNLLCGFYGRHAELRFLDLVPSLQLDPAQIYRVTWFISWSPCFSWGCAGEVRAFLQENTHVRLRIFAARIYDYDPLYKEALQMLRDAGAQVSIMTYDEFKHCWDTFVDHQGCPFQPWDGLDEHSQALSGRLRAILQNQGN
Sequence of Fibroblast growth factor receptor 3 (P22607 whole entry): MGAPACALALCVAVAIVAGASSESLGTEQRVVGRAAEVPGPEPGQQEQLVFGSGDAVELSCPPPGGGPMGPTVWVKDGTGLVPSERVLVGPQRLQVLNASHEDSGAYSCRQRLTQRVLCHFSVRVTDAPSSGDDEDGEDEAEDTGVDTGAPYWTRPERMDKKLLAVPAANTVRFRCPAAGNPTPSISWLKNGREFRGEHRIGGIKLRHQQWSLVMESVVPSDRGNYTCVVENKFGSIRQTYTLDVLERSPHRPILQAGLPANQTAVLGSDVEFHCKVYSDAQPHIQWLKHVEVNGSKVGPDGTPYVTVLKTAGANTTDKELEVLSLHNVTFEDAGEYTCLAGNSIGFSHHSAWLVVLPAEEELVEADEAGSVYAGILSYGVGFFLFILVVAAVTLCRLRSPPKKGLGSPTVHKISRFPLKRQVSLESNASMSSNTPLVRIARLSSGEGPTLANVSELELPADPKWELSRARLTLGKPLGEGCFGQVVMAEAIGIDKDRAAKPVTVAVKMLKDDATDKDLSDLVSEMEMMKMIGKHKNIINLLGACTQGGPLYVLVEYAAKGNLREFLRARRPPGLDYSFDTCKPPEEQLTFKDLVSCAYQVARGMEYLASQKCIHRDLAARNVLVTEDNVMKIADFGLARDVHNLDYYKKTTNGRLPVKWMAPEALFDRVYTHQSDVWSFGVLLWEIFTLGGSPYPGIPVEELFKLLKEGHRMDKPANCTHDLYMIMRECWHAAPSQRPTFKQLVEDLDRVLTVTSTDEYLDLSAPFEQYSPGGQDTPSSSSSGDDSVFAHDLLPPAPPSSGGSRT
Sequence of Genome polyprotein (P29990 2492-3391 limits assumed): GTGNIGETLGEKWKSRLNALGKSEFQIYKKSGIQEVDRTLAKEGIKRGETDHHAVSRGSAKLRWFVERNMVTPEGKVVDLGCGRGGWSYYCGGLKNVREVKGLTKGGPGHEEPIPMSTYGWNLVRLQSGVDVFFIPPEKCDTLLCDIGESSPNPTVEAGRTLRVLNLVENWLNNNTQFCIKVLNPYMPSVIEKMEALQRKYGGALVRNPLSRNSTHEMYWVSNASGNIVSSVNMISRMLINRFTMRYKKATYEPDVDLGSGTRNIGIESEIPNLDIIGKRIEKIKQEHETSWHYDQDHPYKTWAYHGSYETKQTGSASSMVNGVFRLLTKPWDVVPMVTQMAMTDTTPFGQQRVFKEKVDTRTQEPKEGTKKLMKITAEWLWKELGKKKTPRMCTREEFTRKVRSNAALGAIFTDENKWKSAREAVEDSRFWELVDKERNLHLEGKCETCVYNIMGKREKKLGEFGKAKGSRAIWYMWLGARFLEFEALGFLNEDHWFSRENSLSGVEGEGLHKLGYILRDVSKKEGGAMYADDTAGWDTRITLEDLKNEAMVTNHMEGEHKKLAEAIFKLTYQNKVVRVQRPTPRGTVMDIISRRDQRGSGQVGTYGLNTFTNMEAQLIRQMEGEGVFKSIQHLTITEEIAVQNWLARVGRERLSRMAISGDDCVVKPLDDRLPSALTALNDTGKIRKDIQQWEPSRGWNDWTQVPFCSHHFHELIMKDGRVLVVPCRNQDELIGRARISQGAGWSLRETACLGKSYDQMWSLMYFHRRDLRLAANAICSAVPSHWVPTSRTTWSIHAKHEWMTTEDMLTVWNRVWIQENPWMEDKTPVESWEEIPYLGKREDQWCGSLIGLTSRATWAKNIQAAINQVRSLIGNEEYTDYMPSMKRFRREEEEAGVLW
Sequence of DNA topoisomerase (A0A2S9PM60 whole entry): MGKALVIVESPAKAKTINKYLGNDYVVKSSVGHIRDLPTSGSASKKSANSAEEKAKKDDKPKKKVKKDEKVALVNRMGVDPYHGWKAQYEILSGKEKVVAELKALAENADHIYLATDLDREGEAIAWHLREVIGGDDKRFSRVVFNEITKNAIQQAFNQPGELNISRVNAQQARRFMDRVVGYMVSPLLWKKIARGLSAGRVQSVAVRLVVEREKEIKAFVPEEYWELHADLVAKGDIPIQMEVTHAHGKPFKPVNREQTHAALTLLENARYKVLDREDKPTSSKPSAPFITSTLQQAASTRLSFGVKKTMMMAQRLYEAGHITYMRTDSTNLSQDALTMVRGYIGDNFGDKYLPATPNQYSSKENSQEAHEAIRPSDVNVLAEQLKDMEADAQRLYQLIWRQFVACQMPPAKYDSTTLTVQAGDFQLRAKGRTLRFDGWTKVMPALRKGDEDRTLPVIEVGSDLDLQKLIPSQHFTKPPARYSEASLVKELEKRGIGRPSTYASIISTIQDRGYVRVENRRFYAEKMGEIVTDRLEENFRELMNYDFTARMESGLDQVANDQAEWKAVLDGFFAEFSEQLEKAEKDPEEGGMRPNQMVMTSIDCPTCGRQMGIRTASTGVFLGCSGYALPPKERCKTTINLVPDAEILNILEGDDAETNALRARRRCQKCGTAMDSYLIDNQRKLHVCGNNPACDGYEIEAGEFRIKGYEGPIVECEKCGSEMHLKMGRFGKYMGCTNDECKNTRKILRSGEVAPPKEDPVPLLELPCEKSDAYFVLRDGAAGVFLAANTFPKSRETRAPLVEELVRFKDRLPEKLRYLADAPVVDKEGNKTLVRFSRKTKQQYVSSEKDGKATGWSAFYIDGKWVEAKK
Sequence of 72 kDa type IV collagenase (P08253 whole entry): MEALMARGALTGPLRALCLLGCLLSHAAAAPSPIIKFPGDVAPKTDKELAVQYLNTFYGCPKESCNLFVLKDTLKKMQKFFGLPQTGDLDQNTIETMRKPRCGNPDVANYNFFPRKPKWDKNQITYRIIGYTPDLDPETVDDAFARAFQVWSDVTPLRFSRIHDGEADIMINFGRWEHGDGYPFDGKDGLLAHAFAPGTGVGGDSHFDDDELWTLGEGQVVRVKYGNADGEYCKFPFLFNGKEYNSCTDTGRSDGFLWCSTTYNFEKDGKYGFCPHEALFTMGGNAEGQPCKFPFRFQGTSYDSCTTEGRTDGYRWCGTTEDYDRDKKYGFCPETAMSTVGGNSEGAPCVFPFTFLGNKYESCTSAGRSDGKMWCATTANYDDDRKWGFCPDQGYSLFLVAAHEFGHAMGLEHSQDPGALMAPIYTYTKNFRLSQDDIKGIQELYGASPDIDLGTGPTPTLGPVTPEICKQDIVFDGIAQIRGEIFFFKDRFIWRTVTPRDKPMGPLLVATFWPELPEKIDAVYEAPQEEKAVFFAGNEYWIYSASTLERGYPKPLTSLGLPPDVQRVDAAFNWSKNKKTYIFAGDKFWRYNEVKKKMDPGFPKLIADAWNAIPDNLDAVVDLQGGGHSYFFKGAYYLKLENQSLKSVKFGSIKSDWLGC
Sequence of Melanocortin receptor 4 (P32245 whole entry): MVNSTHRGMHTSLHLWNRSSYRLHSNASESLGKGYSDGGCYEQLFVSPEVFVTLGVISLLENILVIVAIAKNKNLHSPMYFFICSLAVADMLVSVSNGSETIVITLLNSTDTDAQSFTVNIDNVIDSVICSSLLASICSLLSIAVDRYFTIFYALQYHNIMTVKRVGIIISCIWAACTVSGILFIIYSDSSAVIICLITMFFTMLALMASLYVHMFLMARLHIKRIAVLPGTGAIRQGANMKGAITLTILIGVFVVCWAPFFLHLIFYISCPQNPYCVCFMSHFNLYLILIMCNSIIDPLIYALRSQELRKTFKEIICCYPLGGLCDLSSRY

For `CCCCC1C(=O)CC[C@H]2[C@@H]1CC(=O)[C@@H]2C/C=C\CCCC(=O)O` (stereo partly specified), the IC50 [1] was 2.13 µM (active) and the IC50 [2] was 2.38 µM (active).
For `CCCn1c(=O)c2ccccc2n2c(=S)[nH]nc12`, the IC50 (Large T antigen) was 18.2 µM (active), the IC50 [3] was > 100 µM (inactive) and the IC50 [4] was 2.87 µM (active). The IC50 [5] was > 99 µM (inactive) and the IC50 [6] was > 99 µM (inactive).
In the case of `CCCOc1ccc(C(=O)C2=C(O)C(=O)N(c3ccccn3)C2c2ccc(OC)cc2)cc1C` (stereo unspecified), the EC50 [7] is reported as 3.78 µM (active), the EC50 (Streptokinase A) is reported as 103 µM (active) and the IC50 (NS3) is reported as 5.74 µM (active). For the same compound, the EC50 (Streptococcus) was 38.6 µM (active), the AC50 (DNA topoisomerase) was 5.07 µM (active) and the CC50 (Vero) was > 40 µM (active). For the same compound, the IC50 (Genome polyprotein) was 74.3 µM (active).
For `O=C(O)C1CC(=O)N(c2ccc3c(c2)OCCO3)C1` (stereo unspecified), the EC50 [8] was 30.9 µM (inactive) and the IC50 [9] was 6.73 µM (active).
For `O=C(NN=Cc1ccc(N(CCCl)CCCl)cc1)C(=O)c1c[nH]c2ccccc12`, the IC50 (Melanocortin receptor 4) was > 64.6 µM (inactive), the IC50 [10] was 25.5 µM (active) and the IC50 [11] was > 100 µM (inactive). The IC50 [12] was > 64.6 µM (inactive), the IC50 (Prothrombin) was 45.1 µM (active) and the IC50 [13] was > 69.5 µM (inactive). For the same compound, the IC50 [14] was > 69.5 µM (inactive).
In the case of `Cc1ccc(-c2c(C#N)c(N)n(-c3ccccc3C)c(=O)c2C#N)cc1`, the AC50 [15] is reported as 12.6 µM (active) and the EC50 [16] is reported as 2.03 µM (active).
For `COc1ccc2c(-c3ccc(OCCN4CCOCC4)cc3)c(-c3ccccc3OC)sc2c1`, the EC50 [17] was 13.3 µM (active).
For `Cn1c(=O)n(C2CCN(CCNC(=O)c3ccc4ccccc4c3)CC2)c2ccccc21`, the IC50 (Phospholipase D1) was 1.5 µM (active) and the IC50 (Phospholipase D2) was 1.9 µM (active).
In the case of `COc1cc(OC)nc(N2Cc3ccccc3CC2C(=O)O)n1` (stereo unspecified), the Ki [18] is reported as 2.51 µM (active) and the Ki [19] is reported as 0.794 µM (active).
For `Cc1cc(Nc2cc(N3CCN(C)CC3)nc(C=Cc3ccccc3)n2)n[nH]1`, the Ki [20] was 0.501 µM (active), the Ki [21] was 0.501 µM (active) and the Ki [22] was 0.501 µM (active). For the same compound, the Ki [23] was 0.316 µM (active), the Ki [24] was 0.501 µM (active) and the Ki [25] was 0.1 µM (active). The Ki [26] was 0.316 µM (active).
With `COc1ccc(-c2cc(C(=O)N(C3CCCCC3)C3CCCCC3)no2)cc1` the EC50 [27] was > 50 µM (inactive) and the EC50 [28] was > 50 µM (inactive).
With `O=C(c1ccc([N+](=O)[O-])o1)N1CCN(c2cccc(Cl)c2)CC1` the EC50 [29] was 1.25 µM (active) and the EC50 [30] was 12.4 µM (active).
